US11247966B2, “4-(p-trifluoromethylbenzyl)-3-fluoro-1,2,4-triphenylamine derivative and pharmaceutical composition and applications thereof” (HEBEI MEDICAL UNIVERSITY, priority 2018, dated 2022)
Read-outs that look alike come from different tables or passages of the source.

Experiments:
KCNQ2/3 channels = KCNQ2/3 channels (Homo sapiens, UniProt O43525+O43526); test: High-throughput determination of Rb+ efflux by atomic absorption spectrometry; assay type: cell-based
Source text: The determination technique of Rb^+ efflux by AAS is safer and faster in high-throughput screening of potassium channel regulators, and has the characteristics of directly reflecting the activity of ion channels and the regulatory role of regulators. Rb has a similar atomic size to K, and the potassium channel is permeable to Rb^+, the opening or closing of the potassium channel can be determined by measuring the concentration of Rb^+ efflux. Rb has a specific atomic absorption at 780 nm and the Rb^+ concentration can be measured by AAS. Therefore, AAS can be used to screen potassium channel openers or shutters by the high-throughput determination technique for measuring Rb^+ efflux.
Chinese hamster ovary (CHO) cells with stable KCNQ2/3 channels in logarithmic growth phase are inoculated on a 96-well plate at a density of 2×10^4 cells/well. Three wells are provided for each concentration. Solvent control wells having the corresponding concentrations are arranged. After adherent growth overnight, the culture medium is discarded, and 200 μl of a loading buffer containing RbCL is added, and culturing is performed at 37° C. and under 5% CO2 for 3 h. The loading buffer is then discarded and washing is performed 3 times with a wash buffer. To screen the channel opener, the compound to be tested is diluted in a depolarizing buffer and 200 μl of the above solution is added into the cells and reacted for 10 min. After incubation for 10 min, 200 μl of a supernatant is carefully transferred into another 96-well plate. Rb^+ atomic absorption at 780 nm is determined by an ICR8000 atomic absorption spectrometer. The relative efflux is calculated according to the formula Fsupern=(Rb_supern/cpd/Rb_supern/d)*100.

Kunming mice = test: Maximum electroshock seizure (MES) experimental model; assay type: in vivo
Experimental: Methods: Kunming mice, male, 18-22 g, are placed in the experimental environment 3 days before the experiment to make them adapt to the environment, eat and drink freely; the room temperature is 23-25° C.
The experimental instrument is YLS-9A physiological and pharmacological electronic stimulator: continuous wave output; wave width of 20 ms; gap of 10 ms; wave number of 70; voltage of 60 V; current limit of 3.5 mA.
Methods: 24 hours before the formal experiment, the mice are screened, the stimulator is set according to the above parameters, the mouse ears are clamped with crocodile clip of the stimulator, and the stimulation is started. The ankylosis of the hind limbs of the mice is taken as a positive index to screen the qualified (positive) mice and eliminate the substandard mice. In the formal experiment, the grouping is randomly performed with 10 mice in each group according to the experimental scheme, and the electrical stimulation is carried out. If no ankylosis is found in the hind limbs, it is effective (positive).

KCNQ2/3 (Kv7.2/7.3) = KCNQ2/3 (Kv7.2/7.3) (Homo sapiens, UniProt O43525+O43526); test: Electrophysiological patch clamp determination, KCNQ2/3; assay type: cell-based; conditions: whole-cell patch clamp, CHO cells; read-out: EC50 value, activation of KCNQ2/3 (Kv7.2/7.3)
Experimental: (§1) CHO cells culture: CHO cells with stable KCNQ channels are cultured in a DMEM culture solution containing 10% fetal bovine serum, 100 U/ml penicillin and streptomycin, and then digested and passaged by pancreatin. The cells are placed on a 12 mm round cover glass and cultured in a 24-well plate.
(§2) Cell membrane current record by patch clamp technique: HEKA-EPC10 is used as a patch clamp amplifier. Amphotericin B (final concentration of 0.1-0.2 mg/ml) is used in the electrode to record the perforation patch clamp. After polishing, the microelectrode is filled with an electrode inner fluid, and the resistance value is controlled to be 2-4 MΩ. The electrode inner fluid used for recording CHO cells is (mM): KCl 160, HEPES 5, MgCl2 3, CaCl2 1 and EGTA 3, and the pH is adjusted to 7.4 with KOH. The components of the extracellular fluid are (mM): NaCl 160, KCl 2.5, HEPES 10, glucose 8, MgCl2 1 and CaCl2 5. After forming a giant resistance seal between the microelectrode and the cell membrane, the current is recorded under voltage clamping.

KCNQ4 (Kv7.4) = KCNQ4 (Kv7.4) (Homo sapiens, UniProt P56696); test: Electrophysiological patch clamp determination, KCNQ4; assay type: cell-based; conditions: CHO cells
Experimental: as §1, §2

KM mice = test: Pentylenetetrazole (PTZ)-induced epilepsy model; assay type: in vivo; conditions: PTZ 85 mg/kg s.c.
Experimental: Experimental conditions: room temperature 25±1° C.
Experimental animals: KM mice, half male and half female, weighing 18-25 g, 10-12 mice in each group, adapt to the environment for 3 days and eat and drink freely.
Methods: the day before the experiment, each animal is labeled to ensure that the determination time of each animal after administration is consistent. The experimental animals fast for more than 8 h the night before the experiment. […] After the drugs are absorbed, the model is made by the subcutaneous administration of 85 mg/kg PTZ (administration volume of 0.1 ml/10 g) body weight to the neck and back. After PTZ administration, time is counted and the model is put into the transparent observation box in time to keep the environment quiet. The seizure threshold and the number of non-seizure animals are recorded. […] The seizure threshold and the rate of non-death mice (i.e. protective rate) within 12 h after constructing the mold are compared.

[1] = Rb+ efflux by AAS, CHO cells with stable KCNQ2/3 channels, read-out: KCNQ2/3 EC50
[2] = intraperitoneal 1 mg/kg body weight

KCNQ2/3 channels, sequence (O43525 whole entry): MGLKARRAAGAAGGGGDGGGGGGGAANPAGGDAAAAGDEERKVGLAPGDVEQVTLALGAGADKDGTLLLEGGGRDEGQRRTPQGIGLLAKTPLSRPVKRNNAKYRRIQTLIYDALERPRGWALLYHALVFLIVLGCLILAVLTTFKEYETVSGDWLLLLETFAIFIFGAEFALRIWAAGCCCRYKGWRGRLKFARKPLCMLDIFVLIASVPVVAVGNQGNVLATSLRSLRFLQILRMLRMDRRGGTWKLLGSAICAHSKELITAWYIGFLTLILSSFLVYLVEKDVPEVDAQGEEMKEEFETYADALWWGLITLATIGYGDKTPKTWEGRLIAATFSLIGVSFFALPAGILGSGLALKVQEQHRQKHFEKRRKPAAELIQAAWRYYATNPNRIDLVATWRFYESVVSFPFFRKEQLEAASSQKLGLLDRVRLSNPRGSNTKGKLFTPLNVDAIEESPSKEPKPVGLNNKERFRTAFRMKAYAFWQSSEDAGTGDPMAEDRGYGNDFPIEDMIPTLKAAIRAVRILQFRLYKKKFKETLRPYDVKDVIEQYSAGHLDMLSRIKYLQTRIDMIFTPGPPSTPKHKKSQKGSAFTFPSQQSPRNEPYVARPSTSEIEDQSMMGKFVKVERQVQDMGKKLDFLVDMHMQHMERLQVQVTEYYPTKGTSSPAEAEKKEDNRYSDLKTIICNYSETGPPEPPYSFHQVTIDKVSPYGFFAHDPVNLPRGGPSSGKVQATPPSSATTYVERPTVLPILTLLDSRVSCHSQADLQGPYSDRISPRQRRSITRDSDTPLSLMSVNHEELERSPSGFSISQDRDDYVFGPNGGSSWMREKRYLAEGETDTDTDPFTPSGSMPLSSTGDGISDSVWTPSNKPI
KCNQ2/3 channels, sequence (O43526 whole entry): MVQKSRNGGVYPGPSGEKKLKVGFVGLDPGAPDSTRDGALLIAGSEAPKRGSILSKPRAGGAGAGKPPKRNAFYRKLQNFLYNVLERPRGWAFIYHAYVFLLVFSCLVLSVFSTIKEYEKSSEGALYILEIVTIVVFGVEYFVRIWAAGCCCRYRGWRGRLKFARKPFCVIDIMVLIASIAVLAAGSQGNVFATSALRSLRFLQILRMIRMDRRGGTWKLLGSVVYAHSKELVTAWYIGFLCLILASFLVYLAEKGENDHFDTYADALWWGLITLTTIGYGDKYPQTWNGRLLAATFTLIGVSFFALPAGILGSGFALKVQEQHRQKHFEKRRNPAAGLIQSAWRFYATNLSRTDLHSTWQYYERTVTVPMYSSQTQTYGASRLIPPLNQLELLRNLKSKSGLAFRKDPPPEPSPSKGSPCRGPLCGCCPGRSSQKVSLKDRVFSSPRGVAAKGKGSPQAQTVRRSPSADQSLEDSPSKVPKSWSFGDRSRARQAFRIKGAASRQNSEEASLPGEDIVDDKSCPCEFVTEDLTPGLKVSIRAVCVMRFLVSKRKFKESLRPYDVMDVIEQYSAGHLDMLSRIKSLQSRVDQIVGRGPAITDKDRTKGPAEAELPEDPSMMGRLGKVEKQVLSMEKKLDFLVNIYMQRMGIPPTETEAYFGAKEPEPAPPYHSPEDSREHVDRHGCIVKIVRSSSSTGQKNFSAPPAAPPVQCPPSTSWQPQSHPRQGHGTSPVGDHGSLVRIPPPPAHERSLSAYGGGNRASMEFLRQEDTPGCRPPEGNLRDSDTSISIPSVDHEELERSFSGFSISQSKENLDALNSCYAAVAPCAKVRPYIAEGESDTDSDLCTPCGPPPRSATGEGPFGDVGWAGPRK

| Structure (SMILES) | EC50 (KCNQ2/3 channels; [1]) | melting point | also measured |
| --- | --- | --- | --- |
| CC(C)(C)CC(=O)Nc1ccc(NCc2ccc(C(F)(F)F)cc2)c(F)c1N [Compound 2, N-(2-amino-3-fluoro-4-(4-trifluoromethylbenzylamino)-phenyl)-3,3-dimethyl Butyramide] | 210 ± 80 nM | – | effective rate (no ankylosis of hind limbs) (Kunming mice; [2]): 90% |
| Nc1c(NC(=O)CCC2CCCC2)ccc(NCc2ccc(C(F)(F)F)cc2)c1F [Compound 1, N-(2-amino-3-fluoro-4-(4-trifluoromethylbenzylamino)-phenyl)-cyclopentyl propionamide] | 150 ± 40 nM | – | EC50 (KCNQ2/3 (Kv7.2/7.3)): 380 ± 100 nM; opening activity to KCNQ4 (Kv7.4) (KCNQ4 (Kv7.4)): relatively small; effective rate (no ankylosis of hind limbs) (Kunming mice; [2]): 100%; protective rate (non-death mice within 12 h) (KM mice; 3 mg/kg body weight i.p.): 100%; seizure threshold (KM mice; 3 mg/kg body weight i.p.): 867.21 ± 152.51 s; protective rate (non-death mice within 12 h) (KM mice; 5 mg/kg body weight i.p.): 100%; seizure threshold (KM mice; 5 mg/kg body weight i.p.): 1185.96 ± 134.28 s |
| Nc1c(NC(=O)CCCc2ccccc2)ccc(NCc2ccc(C(F)(F)F)cc2)c1F [Compound 7] | 5260 ± 820 nM | 198.5 to 199.5 °C | – |
| Nc1c(NC(=O)CC2CCCC2)ccc(NCc2ccc(C(F)(F)F)cc2)c1F [Compound 4, N-(2-amino-3-fluoro-4-(4-trifluoromethylbenzylamino)-phenyl)-cyclopentyl Acetamide] | 580 ± 130 nM | 196.9 to 197.5 °C | – |
| Nc1c(NC(=O)CCN2CCCCC2)ccc(NCc2ccc(C(F)(F)F)cc2)c1F [Compound 5, N-(2-amino-3-fluoro-4-(4-trifluoromethylbenzylamino)-phenyl)-3-piperidinyl-1-propionamide] | 750 ± 120 nM | 202.1 to 203.5 °C | – |
| CCOC(=O)Nc1ccc(NCc2ccc(F)cc2)cc1N [RTG, Retigabine, reference compound] | – | – | EC50 (KCNQ2/3 channels): 860 ± 180 nM; effective rate (no ankylosis of hind limbs) (Kunming mice; intraperitoneal 10 mg/kg body weight): 80%; protective rate (non-death mice within 12 h) (KM mice; 15 mg/kg body weight i.p.): 50%; seizure threshold (KM mice; 15 mg/kg body weight i.p.): 858.17 ± 528.48 s |
| Nc1c(NC(=O)CCc2ccco2)ccc(NCc2ccc(C(F)(F)F)cc2)c1F [Compound 6, N-(2-amino-3-fluoro-4-(4-trifluoromethylbenzylamino)-phenyl)-3-furanyl-2-propanamide] | 3580 ± 730 nM | 212.2 to 213.5 °C | – |
| Nc1c(NC(=O)C2CCCC2)ccc(NCc2ccc(C(F)(F)F)cc2)c1F [Compound 3, N-(2-amino-3-fluoro-4-(4-trifluoromethylbenzylamino)-phenyl)-cyclopentyl Formamide] | 2830 ± 210 nM | 222.9 to 223.5 °C | – |
